In patent publication US20060166985A1, “Pyrrolydin-2-one derivatives as inhibitors of thrombin and factor xa” (priority 2002, published 2006):

Biological target: human Thrombin (Homo sapiens, UniProt P00734)
Experiment: In vitro assay for inhibition of Thrombin (chromogenic or fluorogenic assay)
Format: biochemical
Settings: Example 2 chromogenic assay, other Examples fluorogenic assay, read-out: thrombin inhibitory Ki

| Ki [µM] | Compound |
| --- | --- |
| < 0.01 | CCOC[C@@H](C(=O)N1CCOCC1)N1CC[C@H](NS(=O)(=O)CCc2ccc(Cl)s2)C1=O [Example 85, 2-(5-chloro-2-thienyl)-N-{(3S)-1-[(1S)-1-[(ethyloxy)methyl]-2-(4-morpholinyl)-2-oxoethyl]-2-oxo-3-pyrrolidinyl}ethanesulfonamide] |
| < 0.025 | COCC[C@@H](C(=O)N1CCOCC1)N1CC[C@H](NS(=O)(=O)CCc2ccc(Cl)s2)C1=O [Example 88] |
| < 0.1 | CN(C)CC[C@@H](C(=O)N1CCOCC1)N1CC[C@H](NS(=O)(=O)CCc2ccc(Cl)s2)C1=O [Example 93, 2-(5-chloro-2-thienyl)-N-{(3S)-1-[(1S)-3-(dimethylamino)-1-(4-morpholinylcarbonyl)propyl]-2-oxo-3-pyrrolidinyl}ethanesulfonamide] |
| < 0.1 | O=C([C@H](CCN1CCCCC1)N1CC[C@H](NS(=O)(=O)CCc2ccc(Cl)s2)C1=O)N1CCOCC1 [Example 94, 2-(5-chloro-2-thienyl)-N-{(3S)-1-[(1S)-1-(4-morpholinylcarbonyl)-3-(1-piperidinyl)propyl]-2-oxo-3-pyrrolidinyl}ethanesulfonamide] |
| < 0.1 | O=C([C@H](CCN1CCOCC1)N1CC[C@H](NS(=O)(=O)CCc2ccc(Cl)s2)C1=O)N1CCOCC1 [Example 95, 2-(5-chloro-2-thienyl)-N-{(3S)-1-[(1S)-3-(4-morpholinyl)-1-(4-morpholinylcarbonyl)propyl]-2-oxo-3-pyrrolidinyl}ethanesulfonamide] |

The next lines start with the molecule.

| Compound | Ki [µM] |
| --- | --- |
| CCOC[C@@H](C(=O)N1CCOCC1)N1CC[C@H](NS(=O)(=O)CCc2ccc(Cl)cc2)C1=O [Example 86, 2-(4-chlorophenyl)-N-((3S)-1-[(1S)-1-[(ethyloxy)methyl]-2-(4-morpholinyl)-2-oxoethyl]-2-oxo-3-pyrrolidinyl}ethanesulfonamide] | < 0.025 |
| CCOC[C@@H](C(=O)N1CCOCC1)N1CC[C@H](NS(=O)(=O)/C=C(\C)c2ccc(Cl)s2)C1=O [Example 87, (1E)-2-(5-chloro-2-thienyl)-N-{(3S)-1-[(1S)-1-[(ethyloxy)methyl]-2-(4-morpholinyl)-2-oxoethyl]-2-oxo-3-pyrrolidinyl}-1-propene-1-sulfonamide] | < 0.01 |
| COC[C@@H](C(=O)N1CCOCC1)N1CC[C@H](NS(=O)(=O)CCc2ccc(Cl)cc2)C1=O [Example 89, 2-(4-chlorophenyl)-N-{(3S)-1-[(1S)-1-[(methyloxy)methyl]-2-(4-morpholinyl)-2-oxoethyl]-2-oxo-3-pyrrolidinyl}ethanesulfonamide] | < 0.05 |
| O=C([C@H](Cc1ccncc1)N1CC[C@H](NS(=O)(=O)CCc2ccc(Cl)s2)C1=O)N1CCOCC1 [Example 90, 2-(5-chloro-2-thienyl)-N-{(3S)-1-[(1S)-2-(4-morpholinyl)-2-oxo-1-(4-pyridinylmethyl)ethyl]-2-oxo-3-pyrrolidinyl}ethanesulfonamide] | < 0.05 |
| O=C([C@H](Cc1cccnc1)N1CC[C@H](NS(=O)(=O)CCc2ccc(Cl)s2)C1=O)N1CCOCC1 [Example 91, 2-(5-chloro-2-thienyl)-N-{(3S)-1-[(1S)-2-(4-morpholinyl)-2-oxo-1-(3-pyridinylmethyl)ethyl]-2-oxo-3-pyrrolidinyl}ethanesulfonamide] | < 0.01 |
| C/C(=C\S(=O)(=O)N[C@H]1CCN([C@@H](CCN2CCOCC2)C(=O)N2CCOCC2)C1=O)c1ccc(Cl)s1 [Example 96, (1E)-2-(5-chloro-2-thienyl)-N-{(3S)-1-[(1S)-3-(4-morpholinyl)-1-(4-morpholinylcarbonyl)propyl]-2-oxo-3-pyrrolidinyl}-1-propene-1-sulfonamide] | < 0.05 |
| COC[C@@H](C(=O)N1CCOCC1)N1CC[C@H](N(CC(=O)N(C)C)S(=O)(=O)CCc2ccc(Cl)s2)C1=O [Example 97, N^2-{[2-(5-chloro-2-thienyl)ethyl]sulfonyl}-N^1,N^1-dimethyl-N^2-{(3S)-1-[(1S)-1-[(methyloxy)methyl]-2-(4-morpholinyl)-2-oxoethyl]-2-oxo-3-pyrrolidinyl}glycinamide] | < 0.05 |
| CNC(=O)CN([C@H]1CCN([C@@H](COC)C(=O)N2CCOCC2)C1=O)S(=O)(=O)CCc1ccc(Cl)s1 [Example 98, N^2-{(2-(5-chloro-2-thienyl)ethyl]sulfonyl}-N^1-methyl-N^2-{(3S)-1-[(1S)-1-[(methyloxy)methyl]-2-(4-morpholinyl)-2-oxoethyl]-2-oxo-3-pyrrolidinyl}glycinamide] | < 0.01 |
| CS(=O)(=O)CC[C@@H](C(=O)N1CCOCC1)N1CC[C@H](NS(=O)(=O)CCc2ccc(Cl)cc2)C1=O [Example 99, 2-(4-chlorophenyl)-N-{(3S)-1-[(1S)-3-(methylsulfonyl)-1-(4-morpholinylcarbonyl)propyl]-2-oxo-3-pyrrolidinyl}ethanesulfonamide] | < 0.2 |
